{"source": "ChEMBL document CHEMBL1201862", "about": "“PubChem BioAssay data set” (2004)", "key": {"[1]": {"target": "T1, Short transient receptor potential channel 4 (Mus musculus, UniProt Q9QUQ5)", "T1 sequence (Q9QUQ5 whole entry)": "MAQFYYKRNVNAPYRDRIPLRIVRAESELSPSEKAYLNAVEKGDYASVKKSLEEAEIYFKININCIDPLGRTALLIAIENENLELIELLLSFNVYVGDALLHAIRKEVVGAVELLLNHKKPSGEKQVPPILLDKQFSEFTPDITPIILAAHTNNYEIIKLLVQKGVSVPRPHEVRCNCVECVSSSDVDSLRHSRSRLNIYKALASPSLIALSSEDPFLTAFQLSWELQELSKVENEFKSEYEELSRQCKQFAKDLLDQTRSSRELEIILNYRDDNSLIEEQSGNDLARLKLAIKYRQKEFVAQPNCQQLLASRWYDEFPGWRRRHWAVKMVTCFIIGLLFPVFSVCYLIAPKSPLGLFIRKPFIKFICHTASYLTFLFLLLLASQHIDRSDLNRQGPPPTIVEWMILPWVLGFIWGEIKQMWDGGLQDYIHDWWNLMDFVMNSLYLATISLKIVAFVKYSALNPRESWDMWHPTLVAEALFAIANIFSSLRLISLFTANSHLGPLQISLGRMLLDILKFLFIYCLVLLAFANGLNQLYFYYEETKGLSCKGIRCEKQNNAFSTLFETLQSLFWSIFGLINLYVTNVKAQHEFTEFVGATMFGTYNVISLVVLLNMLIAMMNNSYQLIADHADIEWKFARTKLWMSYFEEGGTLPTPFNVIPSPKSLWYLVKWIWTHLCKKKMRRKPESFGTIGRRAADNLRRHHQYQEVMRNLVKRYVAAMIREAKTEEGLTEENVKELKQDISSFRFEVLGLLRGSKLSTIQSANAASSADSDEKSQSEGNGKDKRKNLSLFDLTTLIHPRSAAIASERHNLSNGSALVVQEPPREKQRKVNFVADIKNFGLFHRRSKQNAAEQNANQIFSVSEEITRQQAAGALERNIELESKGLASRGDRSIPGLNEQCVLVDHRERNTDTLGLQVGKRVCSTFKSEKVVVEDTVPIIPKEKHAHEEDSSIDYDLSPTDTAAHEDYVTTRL", "assay": "mouse TRPC4 channel activators, dose response, cell-based, HEK293 TRPC4/mu-opioid, Fluo-4 calcium (AID 434937)", "assay_type": "functional"}, "[2]": {"target": "T2, Alkaline phosphatase, tissue-nonspecific isozyme (Homo sapiens, UniProt P05186)", "T2 sequence (P05186 whole entry)": "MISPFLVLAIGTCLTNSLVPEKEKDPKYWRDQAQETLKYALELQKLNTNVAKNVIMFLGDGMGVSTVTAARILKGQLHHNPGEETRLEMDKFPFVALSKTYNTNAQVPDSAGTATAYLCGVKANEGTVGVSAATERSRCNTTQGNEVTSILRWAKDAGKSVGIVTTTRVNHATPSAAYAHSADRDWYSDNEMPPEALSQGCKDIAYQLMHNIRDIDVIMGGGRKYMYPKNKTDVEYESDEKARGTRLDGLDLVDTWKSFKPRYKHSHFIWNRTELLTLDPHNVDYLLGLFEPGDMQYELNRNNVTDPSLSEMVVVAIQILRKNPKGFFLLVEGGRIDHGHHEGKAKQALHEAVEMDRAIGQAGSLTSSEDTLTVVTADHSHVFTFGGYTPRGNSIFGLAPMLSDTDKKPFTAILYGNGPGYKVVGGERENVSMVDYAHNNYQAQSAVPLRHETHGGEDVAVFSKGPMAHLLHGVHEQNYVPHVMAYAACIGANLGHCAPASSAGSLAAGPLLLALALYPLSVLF"}, "[3]": {"target": "T3, Cytochrome P450 2D6 (Homo sapiens, UniProt P10635)", "T3 sequence (P10635 whole entry)": "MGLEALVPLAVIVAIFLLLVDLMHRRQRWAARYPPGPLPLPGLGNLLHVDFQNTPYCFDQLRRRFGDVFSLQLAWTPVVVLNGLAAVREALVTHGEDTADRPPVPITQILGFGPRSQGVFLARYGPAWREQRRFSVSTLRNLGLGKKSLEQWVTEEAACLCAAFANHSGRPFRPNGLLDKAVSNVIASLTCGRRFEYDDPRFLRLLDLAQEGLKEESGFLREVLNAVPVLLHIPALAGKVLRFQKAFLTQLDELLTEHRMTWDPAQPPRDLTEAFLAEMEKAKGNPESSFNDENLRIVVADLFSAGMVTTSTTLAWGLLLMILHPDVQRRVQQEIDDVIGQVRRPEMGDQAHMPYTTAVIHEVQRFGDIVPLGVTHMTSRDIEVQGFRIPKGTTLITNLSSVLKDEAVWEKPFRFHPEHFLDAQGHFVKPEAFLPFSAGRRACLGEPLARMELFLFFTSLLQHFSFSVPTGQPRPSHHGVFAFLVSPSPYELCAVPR", "assay": "qHTS Assay for Inhibitors and Substrates of Cytochrome P450 2D6. [Related pubchem assays: 410 ]", "assay_type": "ADME", "details": "read-out: Potency"}, "[4]": {"target": "T3, Cytochrome P450 2D6"}, "[5]": {"target": "T4, Bcl-2-like protein 10 (Homo sapiens, UniProt Q9HD36)", "T4 sequence (Q9HD36 whole entry)": "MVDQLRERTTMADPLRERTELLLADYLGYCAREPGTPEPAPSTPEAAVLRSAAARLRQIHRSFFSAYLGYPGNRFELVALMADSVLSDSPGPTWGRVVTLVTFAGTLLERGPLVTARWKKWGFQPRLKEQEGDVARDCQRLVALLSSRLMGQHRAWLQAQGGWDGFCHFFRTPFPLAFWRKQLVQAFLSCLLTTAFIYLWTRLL", "assay": "displacers of TR3 peptide from Bcl-B, primary screen, selectivity assay for Bfl-1 inhibitor project, biochemical, fluorescence polarization, FITC-TR3 peptide (AID 748);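 further: fluorescence polarization from a fluorescein-labelled TR3 peptide binding purified Bcl-B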"}, "[6]": {"test_system": "Vero", "assay": "cytotoxicity of synthesized analogs in Vero cells, SAR follow-up, cytotoxicity control for West Nile virus antiviral project, cell-based, set II (AID 2402)", "assay_type": "functional", "details": "Chlorocebus sabaeus"}, "[7]": {"test_system": "Vero", "assay": "cytotoxicity of synthesized analogs in Vero 76, SAR follow-up, cytotoxicity control for West Nile virus antiviral project, Vero 76 cells (AID 2414)", "assay_type": "functional", "details": "Chlorocebus sabaeus"}, "[8]": {"test_system": "Vero", "assay": "Vero E6 cell cytotoxicity, SAR follow-up, cytotoxicity control for West Nile virus antiviral project, synthesized analogs (AID 2244)", "assay_type": "functional", "details": "Chlorocebus sabaeus"}, "[9]": {"test_system": "Salmon testes DNA", "assay": "DNA intercalators displacing acridine orange, dose response, artefact control for KSHV LANA DNA-binding inhibitor project, biochemical, fluorescence polarization, cherry-picked samples, set 2 (AID 504727)", "parameters": "species or system Salmonidae"}, "[10]": {"test_system": "HeLa", "assay": "HeLa cell cytotoxicity, dose response, cytotoxicity control, 24 h, cherry-picked samples (AID 504726);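 further: potency for cytotoxicity as loss of luminescence signal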", "assay_type": "functional, cell-based", "details": "Homo sapiens"}, "[11]": {"target": "Cytochrome P450 2C19 (Homo sapiens, UniProt P33261)", "sequence (P33261 whole entry)": "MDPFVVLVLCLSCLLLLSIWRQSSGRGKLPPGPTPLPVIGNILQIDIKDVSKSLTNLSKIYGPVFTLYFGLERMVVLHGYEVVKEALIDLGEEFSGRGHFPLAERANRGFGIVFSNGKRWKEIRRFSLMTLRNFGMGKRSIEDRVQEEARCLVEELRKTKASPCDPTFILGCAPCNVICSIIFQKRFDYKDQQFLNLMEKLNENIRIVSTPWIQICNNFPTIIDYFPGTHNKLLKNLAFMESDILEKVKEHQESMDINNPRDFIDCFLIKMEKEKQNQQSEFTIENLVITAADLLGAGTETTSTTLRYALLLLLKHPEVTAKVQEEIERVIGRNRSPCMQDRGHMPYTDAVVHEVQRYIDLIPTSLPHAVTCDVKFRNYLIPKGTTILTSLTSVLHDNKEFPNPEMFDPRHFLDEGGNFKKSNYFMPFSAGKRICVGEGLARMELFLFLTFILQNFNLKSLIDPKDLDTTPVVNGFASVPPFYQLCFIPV", "assay": "qHTS Assay for Inhibitors and Substrates of Cytochrome P450 2C19. [Related pubchem assays: 410 ]", "assay_type": "ADME", "details": "read-out: Potency"}, "[12]": {"target": "Cytochrome P450 2C9 (Homo sapiens, UniProt P11712)", "sequence (P11712 whole entry)": "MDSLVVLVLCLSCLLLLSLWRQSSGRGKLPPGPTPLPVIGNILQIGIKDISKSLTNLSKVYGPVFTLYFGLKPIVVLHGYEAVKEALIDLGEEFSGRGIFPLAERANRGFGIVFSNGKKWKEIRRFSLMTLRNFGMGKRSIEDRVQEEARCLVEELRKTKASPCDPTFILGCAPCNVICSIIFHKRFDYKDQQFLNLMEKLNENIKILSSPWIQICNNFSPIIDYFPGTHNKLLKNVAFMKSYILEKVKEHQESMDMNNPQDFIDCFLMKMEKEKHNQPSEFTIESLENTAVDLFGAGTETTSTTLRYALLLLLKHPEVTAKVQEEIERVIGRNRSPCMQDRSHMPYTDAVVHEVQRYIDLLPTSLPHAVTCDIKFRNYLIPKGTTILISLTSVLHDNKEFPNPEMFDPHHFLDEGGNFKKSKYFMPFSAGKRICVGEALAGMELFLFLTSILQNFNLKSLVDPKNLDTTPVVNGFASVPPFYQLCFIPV", "details": "Potency"}, "[13]": {"assay": "cytotoxicity in HPDE-C7 cells, cell-based, fluorescence, HTS (AID 430)", "assay_type": "functional", "details": "Homo sapiens"}, "[14]": {"target": "T5, Estrogen receptor (Homo sapiens, UniProt P03372)", "T5 sequence (P03372 whole entry)": "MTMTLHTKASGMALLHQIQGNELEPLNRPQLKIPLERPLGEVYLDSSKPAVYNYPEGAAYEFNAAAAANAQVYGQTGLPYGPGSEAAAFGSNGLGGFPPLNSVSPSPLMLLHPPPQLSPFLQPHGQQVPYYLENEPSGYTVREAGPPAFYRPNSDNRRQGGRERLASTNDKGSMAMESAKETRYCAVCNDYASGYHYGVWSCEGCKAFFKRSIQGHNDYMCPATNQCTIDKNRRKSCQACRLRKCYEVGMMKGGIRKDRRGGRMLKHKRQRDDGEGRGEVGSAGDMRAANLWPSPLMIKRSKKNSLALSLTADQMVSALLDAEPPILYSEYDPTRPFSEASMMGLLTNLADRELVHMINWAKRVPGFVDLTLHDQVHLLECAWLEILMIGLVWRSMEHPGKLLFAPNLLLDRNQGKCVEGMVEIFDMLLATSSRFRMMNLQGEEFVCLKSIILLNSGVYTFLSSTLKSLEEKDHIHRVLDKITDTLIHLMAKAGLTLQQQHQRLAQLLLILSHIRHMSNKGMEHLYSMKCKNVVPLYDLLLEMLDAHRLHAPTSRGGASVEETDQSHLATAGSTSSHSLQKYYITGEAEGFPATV", "assay": "potentiators of ERα–SRC-1 coactivator binding, dose response, biochemical, TR-FRET, ERα LBD (AID 737)"}, "[15]": {"test_system": "Vero", "assay": "Vero cell cytotoxicity, cytotoxicity control for flavivirus capping enzyme inhibitors (AID 588742)", "assay_type": "functional", "details": "Chlorocebus sabaeus"}, "[16]": {"assay": "cytotoxicity in KRAS-transformed pancreatic duct cells, primary screen, cell-based, fluorescence, HTS (AID 431);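 further: cell line used: HPDE-C7K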", "assay_type": "functional", "details": "Homo sapiens"}, "[17]": {"assay": "cytotoxicity toward NIH3T3 fibroblasts, dose response, counter-screen, cell-based, ATP luminescence, mouse fibroblasts (AID 2010);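 further: cells exposed to compound for about 90 hours before reading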", "assay_type": "functional"}, "[18]": {"target": "Voltage-gated inwardly rectifying potassium channel KCNH2 (Homo sapiens, UniProt Q12809)", "sequence (Q12809 whole entry)": "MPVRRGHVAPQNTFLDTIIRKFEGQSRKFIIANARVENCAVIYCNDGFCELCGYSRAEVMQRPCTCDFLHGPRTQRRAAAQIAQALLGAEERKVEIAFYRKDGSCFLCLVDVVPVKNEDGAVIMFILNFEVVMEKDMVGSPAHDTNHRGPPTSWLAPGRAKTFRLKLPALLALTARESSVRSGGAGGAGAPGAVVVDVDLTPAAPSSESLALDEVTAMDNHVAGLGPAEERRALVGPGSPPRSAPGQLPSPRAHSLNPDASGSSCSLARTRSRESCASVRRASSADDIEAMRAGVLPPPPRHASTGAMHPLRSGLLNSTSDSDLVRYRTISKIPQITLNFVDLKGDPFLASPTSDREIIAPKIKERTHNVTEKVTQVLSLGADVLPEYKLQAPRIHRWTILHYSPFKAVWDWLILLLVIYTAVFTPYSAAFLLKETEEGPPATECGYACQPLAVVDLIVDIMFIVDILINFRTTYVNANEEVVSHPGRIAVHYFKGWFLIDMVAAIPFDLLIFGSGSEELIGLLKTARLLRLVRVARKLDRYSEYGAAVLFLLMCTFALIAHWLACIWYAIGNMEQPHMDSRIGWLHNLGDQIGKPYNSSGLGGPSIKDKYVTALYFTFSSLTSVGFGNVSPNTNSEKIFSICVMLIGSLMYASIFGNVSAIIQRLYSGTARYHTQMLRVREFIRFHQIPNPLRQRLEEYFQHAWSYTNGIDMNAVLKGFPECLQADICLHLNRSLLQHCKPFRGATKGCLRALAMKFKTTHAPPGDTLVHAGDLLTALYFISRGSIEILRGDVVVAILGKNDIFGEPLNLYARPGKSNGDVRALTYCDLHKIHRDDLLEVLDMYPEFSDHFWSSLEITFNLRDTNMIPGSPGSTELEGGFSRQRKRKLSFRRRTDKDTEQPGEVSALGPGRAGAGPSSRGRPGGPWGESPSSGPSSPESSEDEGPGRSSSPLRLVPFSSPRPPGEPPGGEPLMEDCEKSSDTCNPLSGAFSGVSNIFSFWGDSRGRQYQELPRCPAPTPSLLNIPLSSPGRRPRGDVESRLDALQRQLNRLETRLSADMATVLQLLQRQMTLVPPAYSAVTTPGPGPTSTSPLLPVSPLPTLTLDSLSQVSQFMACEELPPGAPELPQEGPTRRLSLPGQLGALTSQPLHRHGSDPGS", "assay": "hERG protection from proarrhythmic block, potency, dose response, cell-based, thallium flux (AID 2121)", "assay_type": "ADME"}, "[19]": {"assay": "inhibitors of intracellular T. cruzi replication, confirmation, NIH3T3 host cells, beta-gal luminescence (AID 2044);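 further: luminescent beta-galactosidase reporter signal from transgenic T. cruzi replicating inside host cells; inhibitors lower the luminescence signal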", "assay_type": "functional, cell-based"}}, "note": "The source made the active and inactive calls.", "data": [{"smiles": "COc1ccc(-n2cc(CNCCc3nc(C)c[nH]3)c(-c3ccccc3Cl)n2)cc1", "values": [{"measurement": "EC50", "setting": "[1]", "result": "5.96 µM (active)"}, {"measurement": "EC50", "setting": "[2]", "result": "66.1 µM (not active)"}]}, {"smiles": "COc1ccc(C[C@H]2c3cc(OC)c(OC)cc3CCN2C)cc1OC", "values": [{"measurement": "AC50", "setting": "[3]", "result": "12.6 µM (inconclusive)"}, {"measurement": "AC50", "setting": "[4]", "result": "6.31 µM (inconclusive)"}]}, {"smiles": "CC(=O)c1c(CC(=O)O)[nH]n(-c2nc3ccccc3s2)c1=O", "values": [{"measurement": "IC50", "setting": "[5]", "result": "71.2 µM (inactive)"}]}, {"smiles": "O=C(CSc1nc2ccccc2c(=O)n1-c1ccc(F)cc1)Nc1cccc2ccccc12", "values": [{"measurement": "CC50", "setting": "[6]", "result": "> 100 µM (active)"}, {"measurement": "CC50", "setting": "[7]", "result": "> 66.6 µM (active)"}, {"measurement": "CC50", "setting": "[8]", "result": "> 40 µM (active)"}]}, {"smiles": "Cc1nnc2sc(-c3csc4c3CCCC4)nn12", "values": [{"measurement": "AC50", "setting": "[9]", "result": "73.6 µM (active)"}, {"measurement": "AC50", "setting": "[10]", "result": "26.3 µM (active)"}]}, {"smiles": "O=C1c2ccccc2C(O)(O)[C@@]1(O)[C@]1(O)C(=O)c2ccccc2C1(O)O", "values": [{"measurement": "AC50", "setting": "[3]", "result": "7.94 µM (inconclusive)"}]}, {"smiles": "CC(C)[C@@H](CC(=O)N[C@@H]1CCCC[C@H]1C(=O)N[C@H](CC(=O)N[C@@H](CCC(=O)O)CC(=O)O)Cc1ccccc1)NC(=O)C[C@H](CO)NC(=O)[C@@H]1CCCC[C@H]1N", "values": [{"measurement": "AC50", "setting": "[11]", "result": "39.8 µM (inconclusive)"}, {"measurement": "AC50", "setting": "[12]", "result": "39.8 µM (inconclusive)"}]}, {"smiles": "CCC(=O)Oc1ccc(/C(CC)=C(\\CC)c2ccc(OC(=O)CC)cc2)cc1", "note": "[DIETHYLSTILBESTROL DIPROPIONATE]", "values": [{"measurement": "EC50", "setting": "[13]", "result": "4.6 µM (active)"}, {"measurement": "EC50", "setting": "[14]", "result": "18.1 µM (active)"}, {"measurement": "CC50", "setting": "[15]", "result": "> 40 µM (active)"}, {"measurement": "EC50", "setting": "[16]", "result": "3.87 µM (active)"}]}, {"smiles": "Cc1cccc(Cn2c(O)c(N=NC(S)=Nc3ccccc3F)c3ccccc32)c1", "values": [{"measurement": "EC50", "setting": "[17]", "result": "2.68 µM (active)"}, {"measurement": "EC50", "setting": "[18]", "result": "1.09 µM (active)"}, {"measurement": "EC50", "setting": "[19]", "result": "0.663 µM (active)"}]}]}
